According to US20190365843A1, “Antimicrobial Activity of Bioactive Compounds and Their Derivatives” (priority 2018, published 2019):

Key:
[1] = system: S. aureus; test: Agar diffusion growth inhibition zone, S. aureus; assay type: cell-based, Staphylococcus aureus
Method in brief: (§1)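 MH agar lawn, inoculum 10^8 CFU/ml (McFarland 0.5 GNB / 1 GPC, 4 h peptone water, 37 °C). Cpd DMSO dilutions; 6 mm well 50 μl or disc 10 μL, dried. 37 °C 24 h; zone diam mm, >6 mm = activity.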

[2] = system: Enterococcus sp.; test: Agar diffusion growth inhibition zone, Enterococcus sp.; assay type: cell-based, Enterococcus species; conditions: 6 mm = no activity
Method in brief: as §1

[3] = system: Salmonella typhimurium; test: Agar diffusion growth inhibition zone, Salmonella typhimurium; assay type: cell-based; conditions: 6 mm = no activity
Method in brief: as §1

[4] = system: Proteus sp.; test: Agar diffusion growth inhibition zone, Proteus sp.; assay type: cell-based, Proteus species
Protocol: Among the bacterial agents tested Gram positive and Gram negative bacterial groups represented by Staphylococcus aureus and Enterococcus species and pathogenic members of Enterobacteriaceae, Vibronaceae, Aeromonadaceae, Pseudomonadaceae were tested. Freshly sub-cultured bacterial strains were inoculated into peptone water and incubated for 4 hours at 37° C. and adjusted to a turbidity of 0.5 (Gram Negative Bacilli), 1 (Gram Positive Cocci) and 4 (Pus cells, GNB, & few Budding yeast cells) Mc Farland standards (10^8 CFU/ml) respectively.
The different bioactive compounds and their derivatives were dissolved and diluted with solvents (DMSO), number of subsequent dilutions was performed to obtain different concentrations of the bioactive compounds and their derivatives. (Working Concentrations).
Agar well diffusion method is widely used to evaluate the antimicrobial activity of plants or other synthetic products. The suspension (microbial inoculum) was used to inoculate into Muller Hinton Agar Petri plates by lawn culture. Well (diameter 6 mm) were punched in the agar by sterile borer and filled with 50 μl of dissolved extracts. Plates were incubated in incubator at 37° C. for 24 hours and measured the growth inhibition zone diameters in mm compared with that of control (DMSO) showing no growth.
The bioactive compounds were tested with desired concentrations in 6 mm filter paper discs (Whatman, no. 3) were impregnated with 10 μL of each of the different dilutions. The discs were allowed to remain at room temperature until complete diluent evaporation and kept under refrigeration until ready to be used. 10 μL of diluents used to products were used as control. Tests were performed by Agar disk-diffusion testing method, which is the official method used in many clinical microbiology laboratories for routine antimicrobial susceptibility testing.
Similar to the procedure used in Agar well diffusion method, the suspension (microbial inoculum) was used to inoculate into Muller Hinton Agar Petri plates by lawn culture. Then, filter paper discs (about 6 mm in diameter), containing the test compound at a desired concentration, were placed on the agar surface. The Petri dishes were incubated under suitable incubation conditions.
Bioactive compounds showing zone of inhibition beyond the size of 6 mm are considered to be having an anti-microbial activity.

[5] = system: E. coli ATCC 25922; test: Agar diffusion growth inhibition zone, E. coli ATCC 25922; assay type: cell-based; conditions: 6 mm = no activity
Method in brief: as §1

[6] = system: EAEC; test: Agar diffusion growth inhibition zone, EAEC; assay type: cell-based, Enteroaggregative E. coli; conditions: 6 mm = no activity
Method in brief: as §1

[7] = system: ETEC; test: Agar diffusion growth inhibition zone, ETEC; assay type: cell-based, Enterotoxigenic E. coli; conditions: ETEC; for zone of inhibition: 6 mm = no activity
Protocol: (§2) Agar well diffusion method is widely used to evaluate the antimicrobial activity of plants or other synthetic products. The suspension (microbial inoculum) was used to inoculate into Muller Hinton Agar Petri plates by lawn culture. Well (diameter 6 mm) were punched in the agar by sterile borer and filled with 50 μl of dissolved extracts. Plates were incubated in incubator at 37° C. for 24 hours and measured the growth inhibition zone diameters in mm compared with that of control (DMSO) showing no growth. The antimicrobial agent diffuses in the agar medium and inhibits the growth of the microbial strain tested (Valgas et al., (2016) Methods for in vitro evaluating antimicrobial activity: A review. Journal of Pharmaceutical Analysis. 6(2):71-9).
(§3) Similar to the procedure used in Agar well diffusion method, the suspension (microbial inoculum) was used to inoculate into Muller Hinton Agar Petri plates by lawn culture. Then, filter paper discs (about 6 mm in diameter), containing the test compound at a desired concentration, were placed on the agar surface. The Petri dishes were incubated under suitable incubation conditions. Generally, antimicrobial agent diffuses into the agar and inhibits germination and growth of the test microorganism and then the diameters of inhibition growth zones are measured (Valgas et al., (2007) Screening methods to determine antibacterial activity of natural products. Brazilian Journal of Microbiology. 38:369-80; Balouiri M et al., (2016) Methods for in vitro evaluating antimicrobial activity: A review. Journal of Pharmaceutical Analysis. 6(2):71-9).

[8] = system: Shigella sp.; test: Agar diffusion growth inhibition zone, Shigella sp.; assay type: cell-based, Shigella species; conditions: Shigella sp., 6 mm = no activity
Protocol: as §2, §3

[9] = system: Pseudomonas sp.; test: Agar diffusion growth inhibition zone, Pseudomonas sp.; assay type: cell-based, Pseudomonas species; conditions: Pseudomonas sp., 6 mm = no activity
Protocol: as §2, §3

[10] = system: Klebsiella sp.; test: Agar diffusion growth inhibition zone, Klebsiella sp.; assay type: cell-based, Klebsiella species; conditions: 6 mm = no activity
Method in brief: as §1

[11] = system: Aeromonas sp.; test: Agar diffusion growth inhibition zone, Aeromonas sp.; assay type: cell-based, Aeromonas species; conditions: for zone of inhibition: Aeromonas sp., 6 mm = no activity
Method in brief: as §1

[12] = system: Pleisiomonas sp.; test: Agar diffusion growth inhibition zone, Pleisiomonas sp.; assay type: cell-based, Pleisiomonas species; conditions: for zone of inhibition: Pleisiomonas sp., 6 mm = no activity
Method in brief: as §1

[13] = system: Candida abicans; test: Agar diffusion growth inhibition zone, Candida abicans; assay type: cell-based, Candida albicans; conditions: 6 mm = no activity
[14] = system: Vibrio cholera; test: Agar diffusion growth inhibition zone, Vibrio cholera; assay type: cell-based, Vibrio cholerae; conditions: Vibrio cholera, 6 mm = no activity
[15] = system: Citrobacter sp.; test: Agar diffusion growth inhibition zone, Citrobacter sp.; assay type: cell-based, Citrobacter species; conditions: 6 mm = no activity
Method in brief: as §1

Demethoxycurcumin [compound 2]
zone of inhibition ([1]; 100 mg, 6 mm = no activity): 11 mm | zone of inhibition ([1]; 150 mg, 6 mm = no activity): 11 mm | zone of inhibition ([1]; concentration not given): 11 mm | zone of inhibition ([2]; 100 mg): 6 mm | zone of inhibition ([2]; 150 mg): 6 mm | zone of inhibition ([3]; 100 mg): 6 mm | zone of inhibition ([3]; 150 mg): 6 mm | zone of inhibition ([4]; Proteus sp., 100 mg, 6 mm = no activity): 12 mm | zone of inhibition ([4]; Proteus sp., 150 mg, 6 mm = no activity): 12 mm | zone of inhibition ([4]; Proteus species, at both concentrations of 100 mg and 150 mg): 12 mm | zone of inhibition ([5]; 100 mg): 6 mm | zone of inhibition ([5]; 150 mg): 6 mm | zone of inhibition ([6]; 100 mg): 6 mm | zone of inhibition ([6]; 150 mg): 6 mm | inhibition of growth [7]: significantly inhibited the growth | zone of inhibition ([7]; 100 mg): 12 mm | zone of inhibition ([7]; 150 mg): 12 mm | zone of inhibition ([8]; 100 mg): 6 mm | zone of inhibition ([8]; 150 mg): 6 mm | zone of inhibition ([9]; 100 mg): 6 mm | zone of inhibition ([9]; 150 mg): 6 mm | zone of inhibition ([10]; 100 mg): 6 mm | zone of inhibition ([10]; 150 mg): 6 mm | zone of inhibition ([11]; 100 mg): 9 mm | zone of inhibition ([11]; 150 mg): 9 mm | inhibition of growth ([11]; Aeromonas species): inhibited the growth | zone of inhibition ([12]; 100 mg): 11 mm | zone of inhibition ([12]; 150 mg): 11 mm | inhibition of growth ([12]; Plesiomonas species): inhibited | zone of inhibition ([13]; 100 mg): 6 mm | zone of inhibition ([13]; 150 mg): 6 mm | zone of inhibition ([14]; 100 mg): 6 mm | zone of inhibition ([14]; 150 mg): 6 mm | zone of inhibition ([15]; 100 mg): 6 mm | zone of inhibition ([15]; 150 mg): 6 mm
